Test results reported in patent publication US8193235B2, “Compositions and methods for establishing and maintaining stem cells in an undifferentiated state” (University of Kansas, priority 2009, dated 2012).
Entries after “also recorded” stand apart in the source; their conditions may differ.

Tests used:
E14 ES cells = assay: ES cell culture in the absence of LIF (undifferentiated state, marker expression); type: cell-based, mouse
Protocol: E14 ES Cell Cultures. Cells were grown in ES-IMDM media (Lonza, Walkersville, Md.) in a feeder-free condition. ES-IMDM was supplemented with 15% serum, 10^5 U/100 ml of LIF (ESGRO, Millipore, Calif.) and 0.0124% monothioglycerol (MTG; Sigma Aldrich). Cells were grown for 3-5 days with change of medium every day. For inducing differentiation in monolayer culture and to determine the effect of Gö6983 in preventing differentiation, E14 cells were cultured on gelatin-coated plastics for 8 days without LIF. Details of experiments performed at clonal-density are described herein. To maintain E14 cells with Gö6983, serum supplemented ES-IMDM was used in the presence of 5 μM Gö6983 and was passed after every 3-5 days. For all assays involving elucidation of different signaling mechanism responsible for maintenance of pluripotency, cells from a ˜70% confluent ES culture plate were washed two times with 1× phosphate-buffered saline (PBS), trypsinized and plated on a 6-well tissue culture plate and treated with or without LIF or Gö6983 or different inhibitors for ˜10 hours followed by preparation of protein lysates and RNA. The PKCζ knocked-down E14 cells that were generated in this study were maintained in serum supplemented ES-IMDM on gelatin-coated plates in the absence of Gö6983 or LIF or any other inhibitor and passed after 3-5 days. For the experiments herein, cells were continuously cultured at least for 5 consecutive passages (>18 days) on gelatin-coated plates without significant differentiation.
Quantitative RT-PCR Analysis. RNA was extracted from different cell samples with TRIZOL reagent (Invitrogen). cDNA was prepared by annealing RNA (1 μg) with 250 ng of a 5:1 mixture of random and oligo(dT) primers heated at 68° C. for 10 minutes. This was followed by incubation with Moloney murine leukemia virus reverse transcriptase (50 units) (Invitrogen, Carlsbad, Calif.) combined with 10 mM DTT, RNasin (PROMEGA, Madison, Wis.), and 0.5 mM dNTPs at 42° C. for 1 hour. Reactions were diluted to a final volume of 100 μl and heat inactivated at 97° C. for 5 minutes. Twenty μl PCR reactions contained 2 μl cDNA, 10 μl SYBR Green Master Mix (Applied Biosystems, Foster City, Calif.) and corresponding primer sets. Relative expression levels were determined from a standard curve of serial dilutions of proliferating ES cell cDNA samples and were normalized to the expression of glyceraldehyde-3-phosphate dehydrogenase (GAPDH). At least three independent experiments were done for each set of data.
Immunostaining. Immunostaining of Oct4, and Nanog expression was performed using standard protocols. Briefly, ES cells were fixed in 4% paraformaldehyde/4% sucrose, permeabilized with 0.1% TRITON X 100 (Sigma). Cells were blocked by adding 1% fish gelatin (Sigma, St. Louis, Mo.) and incubated overnight at 4° C. with 200 μl of primary antibodies. Fluorescent-conjugated secondary antibodies (ALEXA FLUOR 488, and ALEXA FLUOR 568, Molecular Probes, Invitrogen) were used at 1:250 dilutions to visualize cells. Images were captured using a LEICA fluorescence microscope.

R1 ES cells = R1 ES cells without LIF and MEF feeder; type: cell-based, mouse
Protocol: R1 ES Cells. R1 Cells were maintained on MEF feeder in ES-IMDM media supplemented with 15% ES-cell quality serum, 10^5 U/100 ml of LIF. Cells were grown for 3-5 days with change of medium every day. For inducing differentiation in monolayer culture and to determine the effect of Gö6983, cells were cultured at feeder-free condition and without LIF for 7 days.

[1] = test system: human ES cells (H9 cells); assay: Human ES cells in feeder-free culture, MEF-conditioned medium; type: cell-based

In the case of `COc1ccc2c(c1)c(C1=C(c3c[nH]c4ccccc34)C(=O)NC1=O)cn2CCCN(C)C` [Gö6983, 3-[1-[3-(dimethylamino)propyl]5-methoxy-1H-indol-3-yl]-4-(1H-indol-3-yl)-1H-pyrrole-2,5-dione], the “ES cell differentiation at 2.5 μM” value (E14 ES cells; 2.5 μM, without LIF) is reported as “almost completely inhibited”, the “concentration that efficiently maintained undifferentiated ES cell colony / inhibits mouse ES cell differentiation” value (E14 ES cells; concentration profile analysis, absence of LIF) is reported as at least 2.5 µM and the “ES cell differentiation in the absence of LIF” value (E14 ES cells; mouse ES cells, without LIF) is reported as “did not differentiate and maintained their undifferentiated colony morphology”. The “induction of developmental genes required for lineage commitment” value (E14 ES cells; quantitative RT-PCR, FIG. 1B) was “did not occur”, the “expression of pluripotency markers Oct4, Nanog, Sox2 and Rex-1” value (E14 ES cells; quantitative RT-PCR, without LIF, FIG. 1A) was “maintained the expression of pluripotency markers” and the “ES cell pluripotency in media with different batches of fetal bovine serum” value (E14 ES cells; serum from different sources) was “maintained ES cell pluripotency in all culture media irrespective of serum source”. The “maintenance of undifferentiated R1 ES cells” value (R1 ES cells) was “replaced the requirement of LIF and MEF”, the “undifferentiated morphology and SSEA4 expression of human ES cells” value ([1]; MEF-conditioned medium, multiple passages) was “maintained their undifferentiated morphology and expression of pluripotency marker” and the “SSEA4 expression in H9 colonies” value ([1]; versus TeSR1 medium or conditioned medium with bFGF, FIG. 5) was “sustained high levels of SSEA4 expression; also recorded: comparable”. The “Oct4 protein expression in human ES cells” value ([1]; versus conditioned medium alone) was “High levels of Oct4 protein expression”.
